These results are taken from US20260083851A1 (AVILAR THERAPEUTICS, INC., priority 2022, published 2026).

Like-named read-outs stand apart in the source and are kept apart here.

The target in this experiment is T1, ASGP receptor (biotinylated ASGPR) (Homo sapiens, UniProt P07306).
T1 construct: biotin (biotinylated)
T1 sequence (P07306 1-291): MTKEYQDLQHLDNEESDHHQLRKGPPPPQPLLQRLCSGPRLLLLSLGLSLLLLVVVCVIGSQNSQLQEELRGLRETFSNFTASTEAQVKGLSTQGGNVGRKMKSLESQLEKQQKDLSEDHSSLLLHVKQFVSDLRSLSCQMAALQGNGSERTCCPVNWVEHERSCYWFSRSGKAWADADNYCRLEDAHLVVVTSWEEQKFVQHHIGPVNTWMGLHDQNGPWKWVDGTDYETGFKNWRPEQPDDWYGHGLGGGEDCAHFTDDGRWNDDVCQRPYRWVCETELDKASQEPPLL
In kind it is binding. The following applies: SPR, Biacore 8K, 25° C. In general terms: SPR reads the build-up and loss of mass on a sensor chip optically.

The term Kd denotes the equilibrium constant for the complex coming apart. As to `COC(=O)c1cnc(C(=O)NC[C@H]2OC[C@H](Nc3cncc(C(F)(F)F)n3)[C@@H](O)[C@H]2O)nc1` [A72, methyl 2-((((2R,3R,4R,5S)-3,4-dihydroxy-5-((6-(trifluoromethyl)pyrazin-2-yl)amino)tetrahydro-2H-pyran-2-yl)methyl)carbamoyl)pyrimidine-5-carboxylate], the dissociation constant Kd (Table 1A, read-out: ASGPR KD) was < 10 µM.

With `O[C@@H]1[C@H](O)[C@@H](Oc2cccc(C(F)(F)F)n2)CO[C@@H]1CN1CCN(c2cncnc2)CC1` [A293], the Kd (Table 1C, read-out: ASGPR KD) is < 10 µM. Consider `O[C@@H]1[C@@H](Oc2cccc(C(F)(F)F)n2)CN(c2ccc(C(F)(F)F)cn2)C[C@@H]1O` [A427], for which, where the note is “Table 1D, read-out: ASGPR KD”, the equilibrium dissociation constant (Kd) is < 10 µM.

As for `COc1cc(N[C@H]2CO[C@H](CO)[C@H](O)[C@@H]2O)nc(C(F)(F)F)c1` [A151, (2R,3R,4R,5S)-2-(hydroxymethyl)-5-((4-methoxy-6-(trifluoromethyl)pyridin-2-yl)amino)tetrahydro-2H-pyran-3,4-diol], for the setting “Table 1B, read-out: ASGPR Kd”, the dissociation constant (Kd) was < 10 µM. Turning to `O=C(NC[C@H]1OC[C@H](Nc2cncc(C(F)(F)F)n2)[C@@H](O)[C@H]1O)c1ccn[nH]1` [A49], the equilibrium dissociation constant (Kd) (Table 1A, read-out: ASGPR KD) is < 10 µM. For `O=C(OCc1ccccc1)N1C[C@H](Oc2cccc(C(F)(F)F)n2)[C@@H](O)[C@@H](O)C1` [A386], the Kd (Table 1D, read-out: ASGPR KD) was < 10 µM. Still for that read-out and setting: next, `CN(c1cncc(C(F)(F)F)n1)[C@H]1CNC[C@H](O)[C@@H]1O` [A365]: < 10 µM.

Regarding `COC(=O)/C=C/[C@H]1O[C@H](C)[C@H](O)[C@H](O)[C@H]1Oc1cccc(C(F)(F)F)n1` [A333], for the setting “Table 1C, read-out: ASGPR KD”, the Kd was < 10 µM. The same measure, in the same setting: next, `C[C@H]1O[C@@H](c2ncnc3c2ncn3Cc2ccccc2)[C@H](Oc2cccc(C(F)(F)F)n2)[C@@H](O)[C@H]1O` [A335]: < 10 µM. Consider `O=C(NC[C@H]1OC[C@H](Nc2cncc(C(F)(F)F)n2)[C@@H](O)[C@H]1O)c1cnc2ccccc2n1` [A71, N-(((2R,3R,4R,5S)-3,4-dihydroxy-5-((6-(trifluoromethyl)pyrazin-2-yl)amino)tetrahydro-2H-pyran-2-yl)methyl)quinoxaline-2-carboxamide], for which the Kd (Table 1A, read-out: ASGPR KD) is < 10 µM.

Take `O[C@@H]1[C@H](O)[C@@H](Nc2cccc(C(F)(F)F)n2)CO[C@@H]1COc1cccnn1` [A227, (2R,3R,4R,5S)-2-((pyridazin-3-yloxy)methyl)-5-((6-(trifluoromethyl)pyridine-2-yl)amino)tetrahydro-2H-pyran-3,4-diol]: the dissociation constant (Kd) (Table 1C, read-out: ASGPR KD) was < 10 µM.

For `NC[C@H]1OC[C@H](Oc2cccc(C(F)(F)F)n2)[C@@H](O)[C@H]1O` [A192, (2R,3R,4S,5S)-2-(aminomethyl)-5-((6-(trifluoromethyl)pyridin-2-yl)oxy)tetrahydro-2H-pyran-3,4-diol], the equilibrium dissociation constant (Kd) (Table 1C, read-out: ASGPR KD) was < 10 µM. On the same count and under the same terms, to `O[C@@H]1[C@H](O)[C@@H](Oc2cccc(C(F)(F)F)n2)CO[C@@H]1CN1CCN(c2ccccn2)CC1` [A259] belongs < 10 µM; to `O[C@@H]1[C@H](O)[C@@H](Oc2cccc(C(F)(F)F)n2)CO[C@@H]1CN1CCN(c2ccc(Br)nn2)CC1` [A257], < 10 µM. In the case of `O[C@@H]1[C@H](O)[C@@H](Nc2cncc(C(F)(F)F)n2)CO[C@@H]1COc1ccc(C2CNC2)nn1` [A420], under “Table 1D, read-out: ASGPR KD”, the Kd was < 10 µM. Take `C[C@H]1O[C@H](c2cc(-c3ccccc3)no2)[C@H](Oc2cccc(C(F)(F)F)n2)[C@@H](O)[C@H]1O` [A346]: the dissociation constant (Kd) (Table 1D, read-out: ASGPR KD) was < 10 µM. As to `O=C1c2ccccc2CN1C[C@H]1OC[C@H](Nc2cccc(C(F)(F)F)n2)[C@@H](O)[C@H]1O` [A277], the dissociation constant (Kd) (Table 1C, read-out: ASGPR KD) is < 10 µM. `C[C@H]1O[C@H](COc2cnc(C(=O)O)cn2)[C@H](Oc2cccc(C(F)(F)F)n2)[C@@H](O)[C@H]1O` [A443]: under “Table 1E, read-out: ASGPR KD”, the Kd is < 10 µM. Consider `O[C@@H]1[C@H](O)[C@@H](Nc2cncc(C(F)(F)F)n2)CO[C@@H]1CF` [A162, (2S,3R,4R,5S)-2-(fluoromethyl)-5-((6-(trifluoromethyl)pyrazin-2-yl)amino)tetrahydro-2H-pyran-3,4-diol], for which the dissociation constant Kd (Table 1B, read-out: ASGPR Kd) was < 10 µM.

Turning to `COc1cncnc1N[C@H]1CO[C@H](CO)[C@H](O)[C@@H]1O` [A156, (2R,3R,4R,5S)-2-(hydroxymethyl)-5-((5-methoxypyrimidin-4-yl)amino)tetrahydro-2H-pyran-3,4-diol], the Kd (Table 1B, read-out: ASGPR Kd) was in the range of 10 to 100 µM. `CC(=O)N[C@H]1CN(C(=O)CCCCC(=O)OCc2ccccc2)C[C@H](O)[C@@H]1O` [A407]: the equilibrium dissociation constant (Kd) (Table 1D, read-out: ASGPR KD) was 10 to 100 µM. Consider `O=C(O)COCCOCC(=O)NC[C@H]1OC[C@H](Oc2cccc(C(F)(F)F)n2)[C@@H](O)[C@H]1O` [A298], for which, under “Table 1C, read-out: ASGPR KD”, the dissociation constant Kd is < 10 µM.

`O=C(NC[C@H]1OC[C@H](Nc2cncc(C(F)(F)F)n2)[C@@H](O)[C@H]1O)C12CC3CC(CC(C3)C1)C2` [A15, (1S,3S)—N-(((2R,3R,4R,5S)-3,4-dihydroxy-5-((6-(trifluoromethyl)pyrazin-2-yl)amino)tetrahydro-2H-pyran-2-yl)methyl)adamantane-1-carboxamide]: for the setting “Table 1A, read-out: ASGPR KD”, the dissociation constant (Kd) is < 10 µM.

On to `O=C(NC[C@H]1OC[C@H](Nc2cncc(C(F)(F)F)n2)[C@@H](O)[C@H]1O)c1ccc2c(c1)CCNC2` [A3, N-(((2R,3R,4R,5S)-3,4-dihydroxy-5-((6-(trifluoromethyl)pyrazin-2-yl)amino)tetrahydro-2H-pyran-2-yl)methyl)-1,2,3,4-tetrahydroisoquinoline-6-carboxamide], for which, for the setting “Table 1A, read-out: ASGPR KD”, the Kd is < 10 µM. Still for that read-out and setting: to `O=C(O)c1ccc(N2CCC(CN3CCN(C[C@H]4OC[C@H](Nc5nc(C(F)(F)F)ccc5F)[C@@H](O)[C@H]4O)CC3)CC2)cc1` [A101, 4-(4-((4-(((2R,3R,4R,5S)-5-((3-fluoro-6-(trifluoromethyl)pyridin-2-yl)amino)-3,4-dihydroxytetrahydro-2H-pyran-2-yl)methyl)piperazin-1-yl)methyl)piperidin-1-yl)benzoic acid] belongs < 10 µM. Regarding `O[C@@H]1[C@@H](Oc2cccc(C(F)(F)F)n2)COC(C(F)c2ccc(Cl)cc2)[C@@H]1O` (some centres unmarked) [A308], for the setting “Table 1C, read-out: ASGPR KD”, the Kd is < 10 µM. For the molecule `O=C(NC[C@H]1OC[C@H](Nc2cncc(C(F)(F)F)n2)[C@@H](O)[C@H]1O)c1ccc(-c2ccccc2)cn1` [A67, N-(((2R,3R,4R,5S)-3,4-dihydroxy-5-((6-(trifluoromethyl)pyrazin-2-yl)amino)tetrahydro-2H-pyran-2-yl)methyl)-5-phenylpicolinamide], the dissociation constant (Kd) (Table 1A, read-out: ASGPR KD) is < 10 µM.

`O=C(OCc1ccccc1)N1C[C@H](Oc2cncc(C(F)(F)F)n2)[C@@H](O)[C@@H](O)C1` [A385]: under “Table 1D, read-out: ASGPR KD”, the dissociation constant (Kd) is < 10 µM. Turning to `O[C@@H]1[C@H](O)[C@@H](Nc2cccc(C(F)(F)F)n2)CO[C@@H]1COc1ccccc1` [A243], the Kd (Table 1C, read-out: ASGPR KD) was < 10 µM. Same read-out and setting: to `O=C(O)c1ccc(-c2ccc(OC[C@H]3OC[C@H](Nc4cncc(C(F)(F)F)n4)[C@@H](O)[C@H]3O)cc2)cc1` [A215, 4′-(((2R,3R,4R,5S)-3,4-dihydroxy-5-((6-(trifluoromethyl)pyrazin-2-yl)amino)tetrahydro-2H-pyran-2-yl)methoxy)-[1,1′-biphenyl]-4-carboxylic acid] belongs < 10 µM; to `O=C(O)c1ccc(OC[C@H]2OC[C@H](Oc3cccc(C(F)(F)F)n3)[C@@H](O)[C@H]2O)nn1` [A246], < 10 µM; to `O=C(O)c1ccc(OC[C@H]2OC[C@H](Nc3nccc(C(F)(F)F)n3)[C@@H](O)[C@H]2O)nn1` [A325], < 10 µM.

For the molecule `C[C@H]1O[C@H](CCCO)[C@H](Oc2cccc(C(F)(F)F)n2)[C@@H](O)[C@H]1O` [A318], the Kd (Table 1C, read-out: ASGPR KD) is < 10 µM. On the same count and under the same terms, next, `O=C(O)COCCOCC(=O)NC[C@@]12CO[C@@H](O1)[C@H](Nc1cncc(C(F)(F)F)n1)[C@@H](O)[C@H]2O` [A305]: < 10 µM.

Regarding `O[C@@H]1[C@@H](Oc2cncc(C(F)(F)F)n2)CNC[C@@H]1O` [A389], the Kd (Table 1D, read-out: ASGPR KD) is < 10 µM. As to `O=C(CC12CC3CC(CC(C3)C1)C2)NC[C@H]1OC[C@H](Nc2cncc(C(F)(F)F)n2)[C@@H](O)[C@H]1O` [A12, 2-((3R,5R,7R)-adamantan-1-yl)-N-(((2R,3R,4R,5S)-3,4-dihydroxy-5-((6-(trifluoromethyl)pyrazin-2-yl)amino)tetrahydro-2H-pyran-2-yl)methyl)acetamide], under “Table 1A, read-out: ASGPR KD”, the dissociation constant Kd is < 10 µM. Same read-out and setting: to `O=C(O)CNC[C@H]1OC[C@H](Nc2cncc(C(F)(F)F)n2)[C@@H](O)[C@H]1O` [A26, (((2R,3R,4R,5S)-3,4-dihydroxy-5-((6-(trifluoromethyl)pyrazin-2-yl)amino)tetrahydro-2H-pyran-2-yl)methyl)glycine] belongs < 10 µM. Turning to `O[C@@H]1[C@@H](Oc2cccc(C(F)(F)F)n2)COC(C(F)(F)c2ccc(Cl)cc2)[C@@H]1O` (some centres unmarked) [A306], the Kd (Table 1C, read-out: ASGPR KD) was < 10 µM. Same read-out and setting: to `OC[C@H]1O[C@H](Oc2ccc(N3CCNCC3)cc2)[C@H](Oc2cccc(C(F)(F)F)n2)[C@@H](O)[C@H]1O` [A237] belongs < 10 µM. With `C[C@H]1OC[C@H](Nc2cncc(C(F)(F)F)n2)[C@@H](O)[C@H]1O` [A155, (2R,3R,4R,5S)-2-methyl-5-((6-(trifluoromethyl)pyrazin-2-yl)amino)tetrahydro-2H-pyran-3,4-diol], the dissociation constant (Kd) (Table 1B, read-out: ASGPR Kd) was < 10 µM.

Take `O[C@@H]1[C@H](O)[C@@H](Oc2cccc(C(F)(F)F)n2)CO[C@@H]1COc1ccncc1` [A292]: the Kd (Table 1C, read-out: ASGPR KD) is < 10 µM. As for `O[C@@H]1[C@@H](Nc2cncc(C(F)(F)F)n2)CNC[C@@H]1O` [A362], under “Table 1D, read-out: ASGPR KD”, the Kd was < 10 µM. Turning to `C[C@H]1O[C@H](C#CCOc2ccc(C(=O)O)nn2)[C@H](Oc2cccc(C(F)(F)F)n2)[C@@H](O)[C@H]1O` [A322], the Kd (Table 1C, read-out: ASGPR KD) was < 10 µM. On to `O=S(=O)(NC[C@H]1OC[C@H](Nc2cncc(C(F)(F)F)n2)[C@@H](O)[C@H]1O)c1ccccc1` [A112, N-(((2R,3R,4R,5S)-3,4-dihydroxy-5-((6-(trifluoromethyl)pyrazin-2-yl)amino)tetrahydro-2H-pyran-2-yl)methyl)benzenesulfonamide], for which the equilibrium dissociation constant (Kd) (Table 1A, read-out: ASGPR KD) was < 10 µM.
